{"source": "patent US20260184707A1", "about": "“PHARMACEUTICAL COMPOUNDS FOR THE TREATMENT OF COMPLEMENT MEDIATED DISORDERS” (ALEXION PHARMACEUTICALS, INC., priority 2022, published 2026)"}
{"molecular_target": "T1, Human complement C1s enzyme (Homo sapiens, UniProt P09871)", "T1 construct": "purified from human serum, Complement Technology, Inc; purchased Complement Technology, Inc; host or cells: human serum (plasma-derived native protein)", "T1 sequence (P09871 438-688 limits assumed)": "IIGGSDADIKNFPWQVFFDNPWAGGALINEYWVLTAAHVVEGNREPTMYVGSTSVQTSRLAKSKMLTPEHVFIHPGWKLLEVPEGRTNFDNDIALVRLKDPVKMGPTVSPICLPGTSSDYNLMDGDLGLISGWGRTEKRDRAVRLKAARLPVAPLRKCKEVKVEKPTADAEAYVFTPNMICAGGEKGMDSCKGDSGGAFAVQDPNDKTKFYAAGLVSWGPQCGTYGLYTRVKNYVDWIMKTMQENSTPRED", "T1 sequence (P09871 16-437 partner limits assumed)": "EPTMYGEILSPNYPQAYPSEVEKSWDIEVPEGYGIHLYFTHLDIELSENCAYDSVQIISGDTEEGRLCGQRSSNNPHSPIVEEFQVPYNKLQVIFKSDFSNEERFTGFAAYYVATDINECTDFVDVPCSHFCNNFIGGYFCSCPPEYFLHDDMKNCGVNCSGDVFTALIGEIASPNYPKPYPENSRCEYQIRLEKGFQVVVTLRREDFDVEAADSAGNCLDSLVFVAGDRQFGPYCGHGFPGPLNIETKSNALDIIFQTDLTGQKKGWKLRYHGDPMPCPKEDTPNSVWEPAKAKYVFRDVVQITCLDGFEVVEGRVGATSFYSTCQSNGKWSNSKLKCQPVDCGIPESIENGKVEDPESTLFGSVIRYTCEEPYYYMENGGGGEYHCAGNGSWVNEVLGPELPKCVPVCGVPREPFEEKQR", "assay": "Human C1s enzyme assay", "type": "biochemical", "conditions": "human complement C1s enzyme 1.16 nM, substrate Z-L-Lys-SBzl, A405; read-out: IC50 (Stars)", "method_in_brief": "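Serum-purified human C1s (1.16 nM final) preincubated 5 min at room temperature with compound in 50 mM Tris, 1 M NaCl, pH 7.5. Z-L-Lys-SBzl and DTNB added at 100 μM each; A405 recorded every 30 s. IC50 from nonlinear regression of reaction rates versus compound concentration.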", "units": {"IC50": "µM"}}
{"smiles": "C[C@H](Nc1cnc(C2CCCC2)n(CC(=O)NCc2cc3cnccc3[nH]2)c1=O)c1ccc2oc3ccccc3c2c1", "note": "[Compound 277, (S)-N-((1H-pyrrolo[3,2-c]pyr-idin-2-yl)methyl)-2-(2-cyclo-pentyl-5-((1-(dibenzo[b,d]furan-2-yl)ethyl)amino)-6-oxo-pyrimidin-1(6H)-yl)acetamide]", "IC50": "< 0.1"}
{"smiles": "C[C@@H](Nc1ncc(C2=CCOCC2)n(CC(=O)NCc2cc3cnccc3[nH]2)c1=O)c1ccc2oc3ccccc3c2c1", "note": "[Compound 426, (R)—N-((1H-Pyrrolo[3,2-c]pyridine-2-yl)methyl)-2-(3-((1-(dibenzo[b,d]furan-2-yl)ethyl)amino)-6-(3,6-dihydro-2H-pyran-4-yl)-2-oxopyrazin-1(2H)-yl)acetamide]", "IC50": "< 0.1"}
{"smiles": "C[C@@H](Nc1cnc(-c2ccc(S(C)(=O)=O)cc2)n(CC(=O)NCc2cc3cnccc3[nH]2)c1=O)c1ccc2oc3ccccc3c2c1", "note": "[Compound 230, (R)-N-((1H-pyrrolo[3,2-c]pyr-idin-2-yl)methyl)-2-(5-((1-(dibenzo[b,d]furan-2-yl)ethyl)-amino)-2-(4-(methylsulfonyl)-phenyl)-6-oxopyrimidin-1(6H)-yl)acetamide]", "IC50": "< 0.1"}
{"smiles": "C[C@@H](Nc1cnc(-c2cccc(F)c2)n(CC(=O)NCc2cc3cnccc3[nH]2)c1=O)c1ccc2oc3ccccc3c2c1", "note": "[Compound 229, (R)-N-((1H-pyrrolo[3,2-c]pyr-idin-2-yl)methyl)-2-(5-((1-(dibenzo[b,d]furan-2-yl)ethyl)-amino)-2-(3-fluorophenyl)-6-oxopyrimidin-1(6H)-yl)acet-amide]", "IC50": "< 0.1"}
{"smiles": "O=C(Cn1c(-c2ccccc2)ncc(NC(=O)c2ccc3c(c2)C(F)(F)c2ccccc2-3)c1=O)NCc1cc2cnccc2[nH]1", "note": "[Compound 204, N-(1-(2-(((1H-pyrrolo[3,2-c]pyridin-2-yl)methyl)amino)-2-oxoethyl)-6-oxo-2-phenyl-1,6-dihydropyrimidin-5-yl)-9,9-difluoro-9H-fluorene-2-carbox-amide]", "IC50": "< 0.1"}
{"smiles": "O=C(Cn1c(-c2ccccc2F)ncc(NCc2ccc3oc4ccccc4c3c2)c1=O)NCc1cc2cnccc2[nH]1", "note": "[Compound 120, N-((1H-pyrrolo[3,2-c]pyridin-2-yl)methyl)-2-(5-((dibenzo [b,d]furan-2-ylmethyl)amino)-2-(2-fluorophenyl)-6-oxopyr-imidin-1(6H)-yl)acetamide]", "IC50": "< 0.1"}
{"smiles": "C[C@@H](Nc1cnc(-c2ccccn2)n(CC(=O)NCc2cc3cnccc3[nH]2)c1=O)c1ccc2oc3ccccc3c2c1", "note": "[Compound 323, (R)-N-((1H-pyrrolo[3,2-c]pyridin-2-yl)methyl)-2-(5-((1-(dibenzo[b,d]furan-2-yl)ethyl)-amino)-6-oxo-2-(pyridin-2-yl)-pyrimidin-1(6H)-yl)acetamide]", "IC50": "< 0.1"}
{"smiles": "CS(=O)(=NC#N)c1ccc(-c2ncc(NCCCc3ccccc3)c(=O)n2CC(=O)NCc2cc3cnccc3[nH]2)cc1", "note": "(centres unmarked) [Compound 114, N-((1H-pyrrolo[3,2-c]pyridine-2-yl)methyl)-2-(2-(4-(N-cyano-S-methylsulfonimidoyl)phenyl)-6-oxo-5-((3-phenylpropyl)amino)pyrimidin-1(6H)-yl)acetamide]", "IC50": "< 0.1"}
{"smiles": "O=C(Cn1c(-c2ccccc2)ncc(NC(=O)c2ccc(Oc3ccccc3)cc2)c1=O)NCc1cc2cnccc2[nH]1", "note": "[Compound 8, N-(1-(2-(((1H-pyrrolo[3,2-c]pyridin-2-yl)methyl)amino)-2-oxoethyl)-6-oxo-2-phenyl-1,6-dihydropyrimidin-5-yl)-4-phenoxybenzamide]", "IC50": "< 0.1"}
{"smiles": "C[C@H](Nc1cnc(-c2ccc(O[C@@H]3CO[C@H]4[C@@H]3OC[C@H]4O)cc2)n(CC(=O)NCc2cc3cnccc3[nH]2)c1=O)c1ccc2oc3ccccc3c2c1", "note": "[Compound 288, N-((1H-pyrrolo[3,2-c]pyridin-2-yl)methyl)-2-(5-(((S)-1-(dibenzo[b,d]furan-2-yl)ethyl)-amino)-2-(4-(((3R,3aR,6R, 6aR)-6-hydroxyhexahydrofuro [3,2-b]furan-3-yl)oxy)phenyl)-6-oxopyrimidin-1(6H)-yl)acet-amide]", "IC50": "< 0.1"}
{"smiles": "O=C(Cn1c(N2CCCCC2)cnc(NCc2cc(-c3ccccc3)ns2)c1=O)NCc1cc2cnccc2[nH]1", "note": "[Compound 477, N-((1H-pyrrolo[3,2-c]pyridin-2-yl)methyl)-2-(2-oxo-3-(((3-phenylisothiazol-5-yl)methyl)-amino)-6-(piperidin-1-yl)pyr-azin-1(2H)-yl)acetamide]", "IC50": "< 0.1"}
{"smiles": "O=C(Cc1cc(NCCCc2ccccc2)ncc1-c1ccccc1)NCc1cc2cnccc2[nH]1", "note": "[Compound 80, N-((1H-pyrrolo[3,2-c]pyridine-2-yl)methyl)-2-(5-phenyl-2-((3-phenylpropyl)amino)pyridine-4-yl)acetamide]", "IC50": "> 1"}
{"smiles": "O=C(Cn1c(-c2ccccc2)ncc(NCCCCOc2ccccc2)c1=O)NCc1cc2cnccc2[nH]1", "note": "[Compound 11, N-((1H-pyrrolo[3,2-c]pyridin-2-yl)methyl)-2-(6-oxo-5-((4-phenoxybutyl)amino)-2-phenylpyrimidin-1(6H)-yl)acetamide]", "IC50": "< 0.1"}
{"smiles": "CO[C@@H]1CO[C@H]2[C@@H]1OC[C@H]2Oc1ccc(-c2ncc(NCCCc3ccccc3)c(=O)n2CC(=O)NCc2cc3cnccc3[nH]2)cc1", "note": "[Compound 189, N-((1H-pyrrolo[3,2-c]pyridine-2-yl)methyl)-2-(2-(4-(((3R,3aR,6R,6aR)-6-methoxyhexahydrofuro[3,2-b]furan-3-yl)oxy)phenyl)-6-oxo-5-((3-phenylpropyl)amino)pyrimidin-1(6H)-yl)acetamide]", "IC50": "< 0.1"}
{"smiles": "C[C@@H](Nc1ncc(N2CCN(C)CC2)n(CC(=O)NCc2cc3cnccc3[nH]2)c1=O)c1ccc2oc3ccccc3c2c1", "note": "[Compound 428, (R)-N-((1H-pyrrolo[3,2-c]pyridin-2-yl)methyl)-2-(3-((1-(dibenzo[b,d]furan-2-yl)ethyl)-amino)-6-(4-methylpiperazin-1-yl)-2-oxopyrazin-1(2H)-yl)-acetamide]", "IC50": "< 0.1"}
{"smiles": "O=C(Cn1c(-c2ccccc2)cnc(NCc2ccc3oc4ccccc4c3c2)c1=O)NCc1cc2cnccc2[nH]1", "note": "[Compound 176, N-((1H-pyrrolo[3,2-c]pyridin-2-yl)methyl)-2-(3-((dibenzo [b,d]furan-2-ylmethyl)amino)-2-oxo-6-phenylpyrazin-1(2H)-yl)acetamide]", "IC50": "< 0.1"}
{"smiles": "O=C(Cn1c(-c2ccccc2)ncc(NC(=O)c2cc(-c3ccccc3)cs2)c1=O)NCc1cc2cnccc2[nH]1", "note": "[Compound 210, N-(1-(2-(((1H-pyrrolo[3,2-c]pyridin-2-yl)methyl)amino)-2-oxoethyl)-6-oxo-2-phenyl-1,6-dihydropyrimidin-5-yl)-4-phen-ylthiophene-2-carboxamide]", "IC50": "< 0.1"}
{"smiles": "O=C(Cn1c(-c2ccccc2)ncc(NC(=O)c2ccc(-c3ccccc3)cc2F)c1=O)NCc1cc2cnccc2[nH]1", "note": "[Compound 166, N-(1-(2-(((1H-pyrrolo[3,2-c]pyridine-2-yl)methyl)amino)-2-oxoethyl)-6-oxo-2-phenyl-1,6-dihydropyrimidin-5-yl)-3-fluoro-[1,1′-biphenyl]-4-carboxamide]", "IC50": "< 0.1"}
{"smiles": "C[C@@H](Nc1cnc(N2CCCC2)n(CC(=O)NCc2cc3cnccc3[nH]2)c1=O)c1ccc(-c2ccccc2F)cc1", "note": "[Compound 422, (R)-N-((1H-pyrrolo[3,2-c]pyridin-2-yl)methyl)-2-(5-((1-(2′-fluoro-[1,1′-biphenyl]-4-yl)ethyl)amino)-6-oxo-2-(pyr-rolidin-1-yl)pyrimidin-1(6H)-yl)acetamide]", "IC50": "< 0.1"}
{"smiles": "C[C@@H](Nc1cnc(N2CCN(C)CC2)n(CC(=O)NCc2cc3cnccc3[nH]2)c1=O)c1ccc2oc3ccccc3c2c1", "note": "[Compound 389, (R)-N-((1H-pyrrolo[3,2-c]pyridin-2-yl)methyl)-2-(5-((1-(dibenzo[b,d]furan-2-yl)ethyl)-amino)-2-(4-methylpiperazin-1-yl)-6-oxopyrimidin-1(6H)-yl)acetamide]", "IC50": "< 0.1"}
{"smiles": "C[C@@H](Nc1cnc(-c2cncs2)n(CC(=O)NCc2cc3cnccc3[nH]2)c1=O)c1ccc2oc3ccccc3c2c1", "note": "[Compound 358, (R)-N-((1H-pyrrolo[3,2-c]pyridin-2-yl)methyl)-2-(5-((1-(dibenzo[b,d]furan-2-yl)ethyl)-amino)-6-oxo-2-(thiazol-5-yl)-pyrimidin-1(6H)-yl)acetamide]", "IC50": "< 0.1"}
{"smiles": "O=C(Cn1c(-c2ccccc2)ncc(NC(=O)c2nc(-c3ccccc3)cs2)c1=O)NCc1cc2cnccc2[nH]1", "note": "[Compound 208, N-(1-(2-(((1H-pyrrolo[3,2-c]pyridin-2-yl)methyl)amino)-2-oxoethyl)-6-oxo-2-phenyl-1,6-dihydropyrimidin-5-yl)-4-phen-ylthiazole-2-carboxamide]", "IC50": "< 0.1"}
{"smiles": "C[C@H](Nc1cnc(-c2ccco2)n(CC(=O)NCc2cc3cnccc3[nH]2)c1=O)c1ccc2oc3ccccc3c2c1", "note": "[Compound 273, (S)-N-((1H-pyrrolo[3,2-c]pyr-idin-2-yl)methyl)-2-(5-((1-(dibenzo[b,d]furan-2-yl)ethyl)-amino)-2-(furan-2-yl)-6-oxo-pyrimidin-1(6H)-yl)acetamide]", "IC50": "< 0.1"}
